# Measured values from paper PMC11939470, “The Cyclic Antimicrobial Peptide C-LR18 Has Enhanced Antibacterial Activity, Improved Stability, and a Longer Half-Life Compared to the Original Peptide” (Antibiotics, 2025).
# Where a SMILES comes first, the peptide text is derived from it. Bridges are numbered along the chain shown (N, C = ends).
# Legend:
# [1] = system: E. coli ATCC25922; assay: Stability in protease, read out by MIC assay; type: in vitro ADME; conditions: 1 mg/mL papain for 1 h
# Method: (§1) The MIC test was performed using the method recommended by the National Committee for Clinical Laboratory Standards (NCCLS) Standards and Guidelines, and the method was modified according to the characteristics of antimicrobial peptides. The bacteria were cultured at 37 °C for 16 h, and the microbial suspension was diluted to a final concentration of 5 × 10^5 CFU/mL. Then, 50 µL of bacterial solution was mixed with 50 µL of MHB containing different concentrations peptides (0.5–256 µM) in a 96-well plate. […] The assays were performed three times. Geometric mean MIC represents the average MIC of the peptide against all the tested strains.
# (§2) The stability of LR18 and C-LR18 in protease, serum, and gastrointestinal conditions was determined using MIC assay, as described previously.
# To detect the stability of peptides in protease, the peptides were diluted in 1 mg/mL of trypsin, pepsin, papain, and protease K, respectively, and incubated at 37 °C for 1 h. Then, the protease in the peptide solutions was inactivated in a water bath at 60 °C for 30 min. Subsequent steps were the same as for the MIC assay. The assays were performed three times.
# [2] = system: genomic DNA of E. coli ATCC25922; assay: DNA binding assay (gel retardation); conditions: 100 ng genomic DNA, 1–512 µM peptide, 37 °C 60 min, 0.8% agarose gel
# Method: The DNA binding test was performed according to gel retardation experiments described previously. Firstly, genomic DNA was extracted from E. coli ATCC25922 using a DNA extraction kit. A total of 100 ng of genomic DNA was mixed with 1–512 µM peptide in a binding buffer (50 µg/mL of BSA, 1 mM of ethylene diamine tetra-acetic acid, 20 mM of KCl, 10 mM of Tris-HCl (pH = 8.0), 5% glycerol, and 1 mM of dithiothreitol) and incubated at 37 °C for 60 min. Subsequently, the samples were examined using 0.8% agarose gel electrophoresis. Observation and photography were performed in the UVP gel imaging system, and the electrophoresis mobility was analyzed.
# [3] = system: E. coli Y1; assay: Bacterial load in liver and spleen of mice; type: in vivo; conditions: 7.5 mg/kg tail vein 1 h after ip E. coli Y1, one mouse every 24 h
# Method: One hour after the mice were intraperitoneally injected with 0.5 mL of E. coli Y1 suspension (10^9 CFU/mL), C-LR18 was injected into the mice at a dose of 7.5 mg/kg through the tail vein. The normal saline group was used as negative control, and the polymyxin B group (1 mg/kg) was used as positive control. After that, one mouse was taken every 24 h, sacrificed via cervical dislocation, and the liver and spleen were removed, weighed, and added to PBS buffer for grinding at 3000 r/min for 2 min. The abrasive solution was diluted with sterile PBS (1:10,000), and 0.1 mL diluent was evenly coated in solid MH medium and cultured at 37 °C overnight. Colony counting was performed on the samples, and the bacterial colonization amount in liver and spleen was calculated.
# [4] = system: E. coli ATCC25922; assay: Membrane permeability assay (propidium iodide uptake, flow cytometry); type: cell-based; conditions: 1 × MIC (4 μM), 30 min 37 °C, 1 × 10^6 CFU/mL, PBS control 3.25%
# Method: The effect of C-LR18 on bacterial membrane permeability was measured using the propidium iodide (PI) uptake assay described in [22]. E. coli ATCC25922 in logarithmic growth phase were adjusted to 1 × 10^6 CFU/mL. C-LR18 was added with the final concentration of 4 μM. The mixtures were incubated for 30 min at 37 °C. […] After eliminating unbound dye by washing twice with PBS, the bacterial cells were detected using a flow cytometer (Ex = 535 nm/Em = 615 nm). The results were analyzed using FlowJo 6.2.1 and GraphPad Prism 5 software.
# [5] = system: E. coli ATCC25922; assay: Stability in artificial gastric and intestinal fluid, read out by MIC assay; type: in vitro ADME
# Method: as §1, §2
# The stability in gastrointestinal conditions was also determined. The peptides were diluted in artificial gastric fluid and artificial intestinal fluid, digested in water bath at 37 °C for 0.5 and 1 h, and then inactivated in water bath at 60 °C for 30 min. Then, the PH of the solution was adjusted to 7.0 with 10% Na2CO3. Subsequent steps were the same as for the MIC assay. The assays were performed three times.
# [6] = system: E. coli ATCC25922; assay: Impact of temperature and pH on MIC; type: physicochemical; conditions: after 100 °C for 30 min, acid treatment (pH4) 1 h, alkali treatment (pH10) 1 h
# Method: as §1
# The impact of temperature on peptides’ antimicrobial activity was also tested.
# [7] = system: rabbit red blood cells; assay: Hemolysis activity determination; type: cell-based; conditions: 2% rabbit red blood cells in PBS pH 7.4, 37 °C 1 h, OD 570 nm, repeated three times
# Method: Briefly, the collected rabbit red blood cells [purchased from Oumarsi (Shanghai, China) Biotechnology Co., Ltd.] were washed three times with PBS (pH 7.4) and diluted to 2% (v/v). A total of 100 µL of rabbit red blood cells suspension were mixed with 100 µL of PBS (pH 7.4) containing different concentrations of peptides (1–256 µM) in a 96-well plate. The positive control was a mixture of 100 µL of red blood cell suspension and 100 µL of 0.2% TritonX-100 solution, and the negative control was a mixture of 100 µL of red blood cell suspension and 100 µL of PBS solution. The mixtures were incubated at 37 °C for 1 h, then centrifuged at 1000× g for 10 min. The OD value at 570 nm of the supernatant was measured using a microplate reader (TECAN GENios F129004, Tecan, Salzburg, Austria). The hemolytic index was calculated according to the following formula:Hemolytic index % = (OD peptide − ODPBS)/(ODT ritonX-100 − ODPBS) × 100%(2)
# The concentration of the antimicrobial peptide causing 10% erythrocyte hemolysis was defined as the minimum hemolytic concentration of the antimicrobial peptide on rabbit red blood cells. The experiment was repeated three times.
# [8] = system: E. coli ATCC25922; assay: Stability in serum, read out by MIC assay; type: in vitro ADME
# Method: as §1, §2
# To detect the stability of peptides in serum, the peptides were mixed with various concentrations of fetal bovine serum and mouse serum solutions, and the final concentrations of serum were 6.25%, 12.5%, 25%, and 50%. The MIC of peptides against E. coli ATCC25922 in the presence of different concentrations of serum was determined. Subsequent steps were the same as for the MIC assay. The assays were performed three times.
# [9] = system: Gram-negative bacteria; assay: Geometric mean MIC (MBC) and therapeutic index; type: cell-based; conditions: average MIC against the tested Gram-negative strains
# Method: as §1
# MBC detection was performed according to the method of Taiyari et al.. According to the MIC results, 50 µL of bacterial cultures was absorbed from the minimum inhibitory concentration hole and the three previous holes, respectively; transferred to a new MH solid medium; and incubated in an incubator at 37 °C overnight, and the bacteria on the plate were counted. The concentration of antibacterial peptide that kills 99.99% of the tested bacteria is defined as the minimum bactericidal concentration (MBC) of the peptide. The experiment was repeated three times. Geometric mean MBC represents the average […] of the peptide against all the tested strains.
smiles,measurement,setting,value
CC(C)C[C@@H]1NC(=O)[C@H](CCCNC(=N)N)NC(=O)[C@H](CCCNC(=N)N)NC(=O)[C@H](CC(C)C)NC(=O)[C@H](CC(C)C)NC(=O)[C@H](CCCNC(=N)N)NC(=O)[C@H](CC(C)C)NC(=O)[C@@H]2CCCN2C(=O)[C@H](CCCNC(=N)N)NC(=O)[C@H](CCCNC(=N)N)NC(=O)[C@@H]2CCCN2C(=O)[C@H](CC(C)C)NC(=O)[C@H](CCCNC(=N)N)NC(=O)[C@H](CC(C)C)NC(=O)[C@H](CC(C)C)NC(=O)[C@H](CCCNC(=N)N)NC(=O)[C@H](CCCNC(=N)N)NC(=O)[C@H](CC(C)C)NC(=O)[C@@H](N)CSSC[C@@H](C(=O)O)NC1=O [C-LR18] (H-CLRRLLRLPRRPLRLLRRLC-OH; disulfide 1-20; N-terminus and C-terminus assumed),change of antibacterial activity after papain,[1],remained unchanged
same,concentration exhibiting DNA-binding ability,[2],64 µM
same,bacterial colonization in liver and spleen,[3],significantly less than that in the negative control group
same,PI fluorescence of treated cells (PI-A+),[4],60.6%
same,increase of MIC,[5]; artificial gastric fluid 30 min,8 times
same,increase of MIC,[5]; artificial intestinal fluid 30 min,4 times
same,increase of MIC,[5]; artificial intestinal fluid 60 min,16 times
same,expansion of MIC,[6],2 times
same,MHC10 (lowest concentration inducing 10% hemolysis),[7],128 µM
same,increase of MIC,[8]; 50% serum or artificial gut solution for 30 min (abstract),4 fold
same,increase of MIC,[8]; serum concentration 50%,4 times
same,Geometric mean MIC,[9],2 µM
